Assay results reported in patent US20140057915A1, “KINASE INHIBITORS” (TOPIVERT PHARMA LIMITED, priority 2012, published 2014).

Tests used:
[1] = system: IL-8 release, d-U937 cells; experiment: LPS-induced IL-8 release in d-U937 cells; format: cell-based; settings: Homo sapiens, dU937; Table 4c1; read-out: LPS Induced Release of Cytokine in d-U937 Cells, IL-8 IC50
In short: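 IL-8 release after a 4 hr challenge with LPS (0.1 μg/mL, E. coli 0111:B4) following a 2 hr compound pretreatment. Cells were human U937 monocytes differentiated to macrophage-type with PMA 100 ng/mL for 48–72 hr. Relative 50% effective concentration derived from concentration–response data.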

cSrc = cSrc (Homo sapiens, UniProt P12931); experiment: c-Src enzyme inhibition (FRET); format: biochemical
Sequence of cSrc (P12931 whole entry): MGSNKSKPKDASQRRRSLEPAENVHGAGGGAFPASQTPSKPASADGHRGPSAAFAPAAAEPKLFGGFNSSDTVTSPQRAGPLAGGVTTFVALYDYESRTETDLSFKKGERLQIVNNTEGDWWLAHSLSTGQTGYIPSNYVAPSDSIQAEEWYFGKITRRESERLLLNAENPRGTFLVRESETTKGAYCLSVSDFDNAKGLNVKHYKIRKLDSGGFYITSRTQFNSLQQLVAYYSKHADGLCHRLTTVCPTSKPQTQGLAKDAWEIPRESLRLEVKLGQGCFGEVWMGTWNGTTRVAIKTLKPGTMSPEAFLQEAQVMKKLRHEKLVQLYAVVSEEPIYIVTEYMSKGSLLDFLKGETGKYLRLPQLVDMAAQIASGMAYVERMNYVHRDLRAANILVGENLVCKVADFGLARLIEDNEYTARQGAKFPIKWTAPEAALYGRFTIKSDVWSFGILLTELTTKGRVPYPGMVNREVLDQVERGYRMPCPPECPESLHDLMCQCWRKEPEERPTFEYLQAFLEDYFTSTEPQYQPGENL
In short: (§1)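 Kinase activity is measured on a dual-labelled synthetic peptide by FRET. ATP is supplied as an 800 μM solution for c-Src and a 60 μM solution for Syk. Compound is tested at four added concentrations, 4 to 0.004 μg/mL.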

HRV16 in MRC5 cells = experiment: HRV16 induced CPE in MRC5 cells; format: cell-based; settings: Human rhinovirus sp., HRV-16
Protocol: (j) Assessment of HRV16 Induced CPE in MRC5 Cells
MRC-5 cells are infected with HRV16 at an MOI of 1n DMEM containing 5% FCS and 1.5 mM magnesium chloride, followed by incubation for 1 hr at 33° C. to promote adsorption. The supernatants are aspirated, and then fresh media added followed by incubation for 4 days. Where appropriate, cells are pre-incubated with compound or DMSO for 2 hr, and the compounds and DMSO added again after washout of the virus.
After washing, 1% SDS in distilled water (100 μL) is added to each well, and the plates are shaken lightly for 1-2 hr prior to reading the absorbance at 660 nm. The percentage inhibition for each well is calculated. The IC50 value is calculated from the concentration-response curve generated by the serial dilutions of the test compounds.

Syk = Syk (Homo sapiens, UniProt P43405); experiment: Syk enzyme inhibition (FRET); format: biochemical
In short: as §1

[2] = system: ICAM-1 expression, BEAS2B cells; experiment: Poly I:C-induced ICAM-1 expression in BEAS2B cells; format: cell-based; settings: Homo sapiens, BEAS-2B; read-out: Poly IC induced ICAM1 in BEAS2B, IC50
In short: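 BEAS2B human bronchial epithelial cells pre-incubated 2 h with compound, then transfected with poly I:C (1 μg/mL) plus Oligofectamine. After 18 h, cell-surface ICAM-1 read by cell-based ELISA (A450–655), normalised to Crystal Violet cell number (A595); inhibition calculated against vehicle control at each concentration.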

[3] = system: TNFα release, d-U937 cells; experiment: LPS-induced TNFα release in d-U937 cells; format: cell-based; settings: Homo sapiens, dU937; relative to 10 μg/mL BIRB796; Table 4c1; read-out: LPS Induced Release of Cytokine in d-U937 Cells, TNFα REC50
In short: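 U937 cells differentiated with PMA (100 ng/mL, 48–72 hr), pre-treated with compound for 2 hr, then stimulated with E. coli LPS (0.1 μg/mL) for 4 hr. Supernatant cytokine measured by sandwich ELISA; inhibition versus vehicle control, REC50 from concentration-response curve.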

GSK3α [4] = molecular target: T1, GSK3α (Homo sapiens, UniProt P49840); experiment: GSK 3α enzyme inhibition (FRET), Method 1; format: biochemical; settings: Table 4a1
T1 sequence (P49840 whole entry): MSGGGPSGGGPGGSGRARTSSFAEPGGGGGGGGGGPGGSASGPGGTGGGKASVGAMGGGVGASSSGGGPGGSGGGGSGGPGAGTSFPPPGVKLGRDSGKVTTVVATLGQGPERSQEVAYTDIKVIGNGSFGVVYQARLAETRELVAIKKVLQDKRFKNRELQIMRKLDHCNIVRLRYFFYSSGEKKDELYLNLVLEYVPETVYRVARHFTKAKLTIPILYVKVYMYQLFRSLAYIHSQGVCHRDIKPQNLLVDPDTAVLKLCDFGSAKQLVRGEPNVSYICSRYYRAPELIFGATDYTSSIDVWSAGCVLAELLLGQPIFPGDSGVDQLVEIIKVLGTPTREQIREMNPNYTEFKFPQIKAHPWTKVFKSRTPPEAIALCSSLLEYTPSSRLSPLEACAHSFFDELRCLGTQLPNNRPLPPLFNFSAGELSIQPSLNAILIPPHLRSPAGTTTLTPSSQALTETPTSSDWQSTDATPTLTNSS
In short: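 Z-LYTE FRET format. Enzyme (500 ng/mL stock) + compound (stocks 4–0.004 μg/mL), 2 hr RT; add peptide (8 μM stock) + ATP (40 μM stock), 1 hr; protease 1 hr; read donor/acceptor emission ratio.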

d-U937 cells = experiment: Cell viability: MTT assay; format: cell-based, human; settings: 1 μg/mL
In short: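 Differentiated U937 cells exposed to compound at 1 or 10 μg/mL, either 4 h in 5% FCS or 24 h in 10% FCS RPMI1640. MTT then added for 1 h, formazan dissolved in DMSO and read at 550 nm. Viability loss given as % versus 0.5% DMSO vehicle; apparent gains appear negative.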

BDF1 mice = experiment: TNBS-induced colitis in mice; format: in vivo, mouse; settings: TNBS; 2.5 mg/kg; 2 days
Protocol: (C) TNBS-Induced Colitis in Mice […] On Day 0 of the study TNBS (200 μL) is administered intra-colonically via a plastic catheter followed by BID dosing of the vehicle, reference or test compound for 2 or 4 days. During the study animals are weighed every day and stool observations are made and recorded as a score, based on stool consistency. At the time of sacrifice on Day 2 (or Day 4) the large intestine is removed and the length and weight recorded. Sections of the colon are taken for either MPO analysis to determine neutrophil infiltration or for histopathology involving scoring to determine disease severity.

PBMC cells = experiment: Cell mitosis assay; format: cell-based; settings: Homo sapiens, read-out: % Inhibition of mitosis in PBMC cells at 5 μg/mL
Protocol: PBMCs from healthy subjects are separated from whole blood (Quintiles, London, UK) using a density gradient (Histopaque®-1077, Sigma-Aldrich, Poole, UK). The PBMCs (3 million cells per sample) are subsequently treated with 2% PHA (Sigma-Aldrich, Poole, UK) for 48 hr, followed by a 20 hr exposure to varying concentrations of test compounds. At 2 hr before collection, PBMCs are treated with demecolcine (0.1 μg/mL; Invitrogen, Paisley, UK) to arrest cells in metaphase. […] Fluorescence is observed using an ATTUNE flow cytometer (Invitrogen, Paisley, UK), gating for lymphocytes.

IL-8 release, PBMCs = experiment: LPS-induced IL-8 release in PBMC cells; format: cell-based; settings: Homo sapiens, LPS stimulated, read-out: IC50 Values for Inhibition of Cytokine Release, PBMCs, IL-8
Protocol: (b) LPS-Induced TNFα/IL-8 Release in PBMC Cells
Peripheral blood mononuclear cells (PBMCs) from healthy subjects are separated from whole blood using a density gradient (Lymphoprep, Axis-Shield Healthcare). The PBMCs are seeded in 96 well plates and treated with compounds at the desired concentration for 2 hours before addition of 1 ng/ml LPS (Escherichia Coli 0111:B4 from Sigma Aldrich) for 24 hours under normal tissue culture conditions (37° C., 5% CO2). The supernatant is harvested for determination of […] concentrations by sandwich ELISA (Duo-set, R&D systems) and read on the fluorescence microplate reader (Varioskan® Flash, ThermoFisher Scientific).

IL-8 release, HT29 cells = experiment: IL-1β-induced IL-8 release in HT29 cells; format: cell-based; settings: Homo sapiens, HT-29; IL-1β stimulated; read-out: IC50 Values for Inhibition of Cytokine Release, HT29 cells, IL-8
Protocol: (d) IL-1β-Induced IL-8 Release in HT29 Cells
HT29 cells, a human colon adenocarcinoma cell line, are plated in a 96 well plate (24 hrs) and pre-treated with compounds at the desired concentration for 2 hours before addition of 5 ng/ml of IL-1β (Abeam) for 24 hours, Supernatants are harvested for IL-8 quantification by Sandwich ELISA (Duo-set, R&D System). The IC50 is determined from the dose response curve.

GSK3α [5] = molecular target: T1, GSK3α; experiment: GSK 3α enzyme inhibition (FRET), Method 2; format: biochemical; settings: Table 4a2, different laboratory
IL-2 release, PBMCs = experiment: IL-2 release in CD3/CD28 stimulated PBMC cells; format: cell-based; settings: Homo sapiens, read-out: IC50 Values for Inhibition of Cytokine Release, PBMCs, IL-2
Protocol: (§2) (c) IL-2 and IFN Gamma Release in CD3/CD28 Stimulated PBMC Cells
(§3) PBMCs from healthy subjects are separated from whole blood using a density gradient (Lymphoprep, Axis-Shield Healthcare). Cells are added to a 96 well plate pre-coated with a mixture of […] monoclonal antibodies (0.3 ug/ml eBioscience and 3 ug/ml BD Pharmingen respectively). Compound at the desired concentration is then added to the wells and the plate left for 3 days under normal tissue culture conditions. Supernatants are harvested and IL-2 and IFN gamma release determined by Sandwich ELISA (Duo-set, R&D System). The IC50 is determined from the dose response curve.

IFN gamma release, PBMCs = experiment: IFN gamma release in CD3/CD28 stimulated PBMC cells; format: cell-based; settings: Homo sapiens, read-out: IC50 Values for Inhibition of Cytokine Release, PBMCs, IFNγ
Protocol: as §2, §3

[6] = Table 4a2, different laboratory

## COc1ccc(C(=O)NCCN2CCOCC2)cc1Nc1nccc(Oc2ccc(NC(=O)Nc3cc(C(C)C)nn3-c3ccc(C)cc3)c3ccccc23)n1 [Example 30, 3-((4-((4-(3-(3-isopropyl-1-(p-tolyl)-1H-pyrazol-5-yl)ureido)naphthalen-1-yl)oxy)pyrimidin-2-yl)amino)-4-methoxy-N-(2-morpholinoethyl)benzamide]
[1]
  IC50: 9 nM
cSrc; Table 4a1
  IC50: 1 nM
HRV16 in MRC5 cells
  IC50: 0.43 nM
Syk; Table 4a1
  IC50: 103 nM
[2]
  IC50: 117 nM
[3]
  EC50: 2.1 nM
GSK3α [4]
  IC50: > 13200 nM
d-U937 cells
  Cell viability at time point in d-U937 cells, 4 h: −ve (−ve and +ve indicate that the value is below and above respectively, the no significant effect threshold, defined as 30% inhibition at 1 μg/mL at the time point indicated)
  Cell viability at time point in d-U937 cells, 24 h: −ve (−ve and +ve indicate that the value is below and above respectively, the no significant effect threshold, defined as 30% inhibition at 1 μg/mL at the time point indicated)

## Cc1ccc(-n2nc(C(C)(C)C)cc2NC(=O)Nc2ccc(Oc3ccnc(Nc4cc(C)cc(C(N)=O)c4)n3)c3ccccc23)cc1 [Example 40, 3-((4-((4-(3-(3-(tert-butyl)-1-(p-tolyl)-1H-pyrazol-5-yl)ureido)naphthalen-1-yl)oxy)pyrimidin-2-yl)amino)-5-methylbenzamide]
[1]
  IC50: 2.2 nM
cSrc; Table 4a1
  IC50: 3 nM
HRV16 in MRC5 cells
  IC50: 2.9 nM
Syk; Table 4a1
  IC50: 9 nM
[2]
  IC50: 0.7 nM
[3]
  EC50: 0.2 nM
GSK3α [4]
  IC50: 1340 nM
d-U937 cells
  Cell viability at time point in d-U937 cells, 4 h: −ve (−ve and +ve indicate that the value is below and above respectively, the no significant effect threshold, defined as 30% inhibition at 1 μg/mL at the time point indicated)
  Cell viability at time point in d-U937 cells, 24 h: −ve (−ve and +ve indicate that the value is below and above respectively, the no significant effect threshold, defined as 30% inhibition at 1 μg/mL at the time point indicated)

## CCCC1O[C@@H]2C[C@H]3[C@@H]4CCC5=CC(=O)C=C[C@]5(C)[C@H]4[C@@H](O)C[C@]3(C)[C@]2(C(=O)CO)O1 (stereo partly drawn) [Budesonide, reference compound]
BDF1 mice
  LP inflammation: 2.5 ± 0.4
  Ulcer grade: 2.9 ± 0.6

## C#Cc1cc(Nc2nccc(Oc3ccc(NC(=O)Nc4cc(C(C)(C)C)nn4-c4ccc(C)cc4)c4ccccc34)n2)cc(C(=O)N[C@H](C)CN2CCOCC2)c1 [Example 83, (R)-3-((4-((4-(3-(3-(tert-Butyl)-1-(p-tolyl)-1H-pyrazol-5-yl)ureido)naphthalen-1-yl)oxy)pyrimidin-2-yl)amino)-5-ethynyl-N-(1-morpholinopropan-2-yl)benzamide]
PBMC cells
  inhibition at 5 µg/mL: 20.9%
cSrc; [6]
  IC50: 26 nM
IL-8 release, PBMCs
  IC50: 3.8 nM
IL-8 release, HT29 cells
  IC50: 5.3 nM
Syk; [6]
  IC50: 59 nM
GSK3α [5]
  IC50: 11700 nM
IL-2 release, PBMCs
  IC50: 124 nM
IFN gamma release, PBMCs
  IC50: 1.8 nM

## C#Cc1cc(Nc2nccc(Oc3ccc(NC(=O)Nc4cc(C(C)(C)C(F)(F)F)nn4-c4ccc(C)cc4)c4ccccc34)n2)cc(C(=O)NCCN2CCOCC2)c1 [Example 76, 3-Ethynyl-N-(2-morpholinoethyl)-5-((4-((4-(3-(1-(p-tolyl)-3-(1,1,1-trifluoro-2-methylpropan-2-yl)-1H-pyrazol-5-yl)ureido)naphthalen-1-yl)oxy)pyrimidin-2-yl)amino)-benzamide]
PBMC cells
  inhibition at 5 µg/mL: 23%
cSrc; [6]
  IC50: 45 nM
IL-8 release, PBMCs
  IC50: 2.1 nM
IL-8 release, HT29 cells
  IC50: 3 nM
Syk; [6]
  IC50: 34 nM
GSK3α [5]
  IC50: 1780 nM
IL-2 release, PBMCs
  IC50: 188 nM
IFN gamma release, PBMCs
  IC50: 1.8 nM
